Reference: US11696913B2, “Prolonged ectoparasite-controlling agent for animal” (MITSUI CHEMICALS AGRO, INC., priority 2017, dated 2023)

Assays:
Ctenocephalides felis [1] = experiment: Ctenocephalides felis in-vitro feeding test with fleas (CTECFE oral); details: 48 hours, read-out: insecticidal feeding activity; for pest or weed control at 0.8 ppm: dose 0.8 ppm in citrated cattle blood; for pest or weed control at 4 ppm: dose 4 ppm in citrated cattle blood; for pest or weed control at 0.16 ppm: dose 0.16 ppm in citrated cattle blood
Protocol: Ctenocephalides felis In-Vitro Feeding Test with Fleas (CTECFE Oral)
To prepare a test blood mixture for feeding fleas, the test substance was dissolved in dimethyl sulphoxide and diluted with citrated cattle blood to the desired concentration.
To assemble the test set-up, about 20 unfed adult male and female cat fleas
(Ctenocephalides felis) were placed in a chamber which was closed at the top and bottom with gauze. A metal cylinder was sealed at one end with parafilm membrane, placed with the sealed base onto the chamber, and filled with the test blood mixture, which could be imbibed by the fleas through the parafilm membrane. The assembled test set-up was maintained at about 37° C. After 48 hours, the insecticidal feeding activity against fleas was determined. 100% means that all of the fleas were killed; 0% means that none of the fleas was killed.

[2] = system: Rhipicephalus (Boophilus) microplus; experiment: In vitro injection test with Rhipicephalus (Boophilus) microplus (BOOPMI Inj); details: 168 h, laid fertile eggs after 7 days, read-out: acaricidal activity; for pest or weed control at 0.00016 mg: dose 0.16 μg/animal injected; for pest or weed control at 0.0008 mg: dose 0.8 μg/animal injected; for pest or weed control at 32 ng: dose 0.032 μg/animal injected
Protocol: In Vitro Injection Test with Rhipicephalus (Boophilus) Microplus (BOOPMI Inj)
To produce an appropriate mixture for injection, the test substance was dissolved and diluted in dimethyl sulphoxide to the desired concentration. 1 μl of the test mixture was injected into the abdomen of each of 5 engorged adult female cattle ticks (Rhipicephalus (Boophilus) microplus). The ticks were transferred into petri dishes and maintained in a climate-controlled room [28° C., 85% rel. hum.].
Acaricidal activity against cattle ticks was assessed after 7 days by assessment of laid fertile eggs. […] An acaricidal activity of 100% means that none of the ticks laid eggs or laid eggs were infertile; 0% means that the ticks laid eggs, and all the eggs were fertile.

Amblyomma americanum = experiment: In vitro contact test with hard ticks (Amblyomma americanum nymphs); details: read-out: acaricidal activity; for pest or weed control at 1 µg/cm2, 1 µg/cm2: dose 1 μg/cm^2, 48 h; for pest or weed control at 0.2 µg/cm2, 0.2 µg/cm2: dose 0.2 μg/cm^2, 48 h
Protocol: (§1) In Vitro Contact Tests with Adult Hard Ticks
(§2) In vitro contact tests with ticks were conducted with adult males and females of Rhipicephalus sanguineus, Ixodes ricinus, or Dermacentor variabilis, or nymphs of Amblyomma americanum.
(§3) For the coating of the test vials, the test substance was dissolved and diluted in acetone p.a. to the desired concentration. The solution was then homogeneously applied to the inner wall and base of a glass vial by turning and rocking on an orbital shaker until complete evaporation of the solvent. For example, with a 900 ppm solution of test substance, an area-based dose of 5 μg/cm^2 was achieved.
(§4) After the solvent was completely evaporated, 5-10 adult ticks were put in each coated test vial, which was then sealed with a perforated plastic lid and incubated in a horizontal position in the dark at room temperature and ambient humidity (Rhipicephalus sanguineus) or in a climate-controlled cabinet (Ixodes ricinus, Dermacentor variabilis, Amblyomma americanum [21° C., 85% rel. hum.]). Acaricidal activity against the respective tick species was determined after 48 h. For this, ticks were collected to the base of the test vial by gentle knocking, and test vials were then incubated on a hotplate at 45-50° C. for no longer than 5 min. Ticks which remained motionless on the base of the test vial or moved uncoordinated without deliberately climbing up to avoid the heat were considered dead or moribund, respectively.
(§5) A substance was judged to have good acaricidal activity against the respective tick species when at least 80% of ticks were found dead or moribund at a dose of the substance of g/cm^2. An acaricidal activity of 100% means all ticks were dead or moribund. An acaricidal activity of 0% means none of the ticks was found dead or moribund.

Rhipicephalus sanguineus = experiment: In vitro contact test with adult hard ticks (Rhipicephalus sanguineus); details: read-out: acaricidal activity; for pest or weed control at 0.2 µg/cm2, 0.2 µg/cm2: dose 0.2 μg/cm^2, 48 h; for pest or weed control at 1 µg/cm2, 1 µg/cm2: dose 1 μg/cm^2, 48 h
Protocol: as §1, §2, §3, §4, §5

Ctenocephalides felis [3] = experiment: In vitro contact test with fleas; details: read-out: insecticidal activity; for pest or weed control at 0.2 µg/cm2, 0.2 µg/cm2: dose 0.2 μg/cm^2, dead or moribund fleas after 48 h; for pest or weed control at 1 µg/cm2, 1 µg/cm2: dose 1 μg/cm^2, dead or moribund fleas after 48 h
Protocol: In Vitro Contact Tests with Fleas
In vitro contact tests with fleas were conducted with adult male and female cat fleas (Ctenocephalides felis).
as §3, with “To coat” for “For the coating of”, “tubes,” for “vials,”, “tube” for “vial”
Upon complete evaporation of the solvent, 5-10 adult cat fleas (Ctenocephalides felis) were added to each coated tube, which was then sealed with a perforated plastic lid and incubated in a horizontal position at room temperature and ambient humidity. After 48 h, insecticidal activity against fleas was determined. For this, fleas were collected to the base of the tube by knocking the tube, and the tube was allowed to stand upright. Fleas which remained motionless at the base or moved in an uncoordinated manner were considered dead or moribund, respectively.
A substance was judged to have good insecticidal activity against Ctenocephalides felis when at least 80% of the fleas were found dead or moribund at a dose of the substance of μg/cm^2. 100% insecticidal activity means that all the fleas were found dead or moribund. 0% insecticidal activity means that no fleas were found dead or moribund.

Dermacentor variabilis = experiment: In vitro contact test with adult hard ticks (Dermacentor variabilis); details: read-out: acaricidal activity; for pest or weed control at 1 µg/cm2, 1 µg/cm2: dose 1 μg/cm^2, 48 h
Protocol: as §1, §2, §3, §4, §5

SMILES | pest or weed control at 0.8 ppm (Ctenocephalides felis [1]) | pest or weed control at 4 ppm (Ctenocephalides felis [1]) | pest or weed control at 0.00016 mg [2] | pest or weed control at 0.0008 mg [2] | pest or weed control at 1 µg/cm2, 1 µg/cm2 (Amblyomma americanum) | pest or weed control at 1 µg/cm2, 1 µg/cm2 (Rhipicephalus sanguineus) | pest or weed control at 0.2 µg/cm2, 0.2 µg/cm2 (Ctenocephalides felis [3]) | pest or weed control at 1 µg/cm2, 1 µg/cm2 (Ctenocephalides felis [3]) | other results
O=C(Nc1c(I)cc(C(F)(C(F)(F)F)C(F)(F)F)cc1C(F)(F)F)c1cccc(NC(=O)c2ccc(Cl)cc2Br)c1 [Compound 42] | 95% | 95% | 100% | 100% | – | – | – | – | –
N#Cc1ccc(C(=O)Nc2cccc(C(=O)Nc3c(I)cc(C(F)(C(F)(F)F)C(F)(F)F)cc3C(F)(F)F)c2)cc1 [Compound 19] | 95% | 95% | 100% | 100% | 90% | 90% | 95% | 95% | pest or weed control at 0.2 µg/cm2, 0.2 µg/cm2 (Rhipicephalus sanguineus): 90%
CN(C(=O)c1ccc(C#N)cc1Cl)c1cccc(C(=O)Nc2c(Br)cc(C(F)(C(F)(F)F)C(F)(F)F)cc2C(F)(F)F)c1 [Compound 18] | 95% | 95% | – | – | – | – | – | – | –
O=C(Nc1cccc(C(=O)Nc2c(Br)cc(C(F)(C(F)(F)F)C(F)(F)F)cc2OC(F)(F)F)c1)c1ccc(Cl)cc1 [Compound 2] | – | – | – | 100% | 90% | – | – | – | –
CN(C(=O)c1ccc(C#N)cc1)c1cc(C(=O)Nc2c(Br)cc(C(F)(C(F)(F)F)C(F)(F)F)cc2C(F)(F)F)ccc1F [Compound 8] | 95% | 95% | – | – | – | – | 95% | 95% | –
CN(C(=O)c1ccc(C#N)cc1)c1cccc(C(=O)Nc2c(Br)cc(C(F)(C(F)(F)F)C(F)(F)F)cc2C(F)(F)F)c1 [Compound 4] | – | – | – | 100% | 90% | – | 95% | 95% | –
CN(C(=O)c1ccc(S(C)(=O)=O)cc1)c1cccc(C(=O)Nc2c(Br)cc(C(F)(C(F)(F)F)C(F)(F)F)cc2C(F)(F)F)c1 [Compound 7] | – | 95% | – | 100% | – | – | – | 95% | –
CN(C(=O)c1ccc(C#N)nc1)c1cccc(C(=O)Nc2c(Br)cc(C(F)(C(F)(F)F)C(F)(F)F)cc2C(F)(F)F)c1 [Compound 6] | 95% | 95% | – | 100% | – | – | 95% | 95% | –
CN(C(=O)c1ccc([N+](=O)[O-])cc1)c1cccc(C(=O)Nc2c(Br)cc(C(F)(C(F)(F)F)C(F)(F)F)cc2C(F)(F)F)c1 [Compound 5] | – | 95% | 100% | 100% | – | – | 95% | 95% | pest or weed control at 1 µg/cm2, 1 µg/cm2 (Dermacentor variabilis): 90%
O=C(Nc1c(I)cc(C(F)(C(F)(F)F)C(F)(F)F)cc1C(F)(F)F)c1cccc(NC(=O)c2ccc([N+](=O)[O-])cc2Cl)c1 [Compound 39] | 95% | 95% | 100% | 100% | 90% | 90% | – | 95% | pest or weed control at 0.2 µg/cm2, 0.2 µg/cm2 (Amblyomma americanum): 90%
CN(C(=O)c1ccc(C#N)cc1)c1cccc(C(=O)Nc2c(I)cc(C(F)(C(F)(F)F)C(F)(F)F)cc2C(F)(F)F)c1 [Compound 20] | 95% | 95% | 100% | 100% | – | – | 95% | 95% | pest or weed control at 32 ng [2]: 100%
CS(=O)(=O)c1ccc(C(=O)Nc2cccc(C(=O)Nc3c(I)cc(C(F)(C(F)(F)F)C(F)(F)F)cc3C(F)(F)F)c2)c(Cl)c1 [Compound 40] | 95% | 95% | – | 100% | – | – | – | – | –
N#Cc1ccc(C(=O)Nc2cccc(C(=O)Nc3c(Br)cc(C(F)(C(F)(F)F)C(F)(F)F)cc3C(F)(F)F)c2)c(F)c1 [Compound 15] | – | 95% | 100% | 100% | 90% | 90% | 95% | 95% | pest or weed control at 0.2 µg/cm2, 0.2 µg/cm2 (Amblyomma americanum): 90%; pest or weed control at 0.2 µg/cm2, 0.2 µg/cm2 (Rhipicephalus sanguineus): 90%
CN(C(=O)c1ccc(C#N)cc1)c1cccc(C(=O)Nc2c(Br)cc(C(F)(C(F)(F)F)C(F)(F)F)cc2C(F)(F)F)c1F [Compound 17] | 95% | 95% | 100% | 100% | – | 90% | 95% | 95% | pest or weed control at 0.0064 ppm (Ctenocephalides felis [1]; dose 0.0064 ppm in citrated cattle blood): 95%; pest or weed control at 0.032 ppm (Ctenocephalides felis [1]; dose 0.032 ppm in citrated cattle blood): 95%; pest or weed control at 0.16 ppm (Ctenocephalides felis [1]): 95%; pest or weed control at 0.2 µg/cm2, 0.2 µg/cm2 (Dermacentor variabilis; dose 0.2 μg/cm^2, 48 h): 90%; pest or weed control at 1 µg/cm2, 1 µg/cm2 (Dermacentor variabilis): 90%; pest or weed control at 0.04 µg/cm2, 0.04 µg/cm2 (Rhipicephalus sanguineus; dose 0.04 μg/cm^2, 48 h): 90%; pest or weed control at 0.2 µg/cm2, 0.2 µg/cm2 (Rhipicephalus sanguineus): 90%; pest or weed control at 0.04 µg/cm2, 0.04 µg/cm2 (Ctenocephalides felis [3]; dose 0.04 μg/cm^2, dead or moribund fleas after 48 h): 95%; pest or weed control at 32 ng [2]: 100%
CN(C(=O)c1ccc(C#N)cc1F)c1cccc(C(=O)Nc2c(Br)cc(C(F)(C(F)(F)F)C(F)(F)F)cc2C(F)(F)F)c1 [Compound 14] | 95% | 95% | 100% | 100% | – | 90% | 95% | 95% | pest or weed control at 0.16 ppm (Ctenocephalides felis [1]): 95%; pest or weed control at 0.2 µg/cm2, 0.2 µg/cm2 (Rhipicephalus sanguineus): 90%
O=C(Nc1cccc(C(=O)Nc2c(Br)cc(C(F)(C(F)(F)F)C(F)(F)F)cc2OC(F)(F)F)c1)c1ccc(C(F)(F)F)cc1 [Compound 1] | – | – | – | 100% | 90% | – | – | – | –
O=C(Nc1c(I)cc(C(F)(C(F)(F)F)C(F)(F)F)cc1C(F)(F)F)c1cccc(NC(=O)c2ccc(Cl)cc2Cl)c1 [Compound 32] | – | 95% | – | 100% | – | – | – | – | –
CN(C(=O)c1ccc(C#N)cc1)c1cccc(C(=O)Nc2c(Br)cc(C(F)(C(F)(F)F)C(F)(F)F)cc2OC(F)(F)F)c1 [Compound 10] | – | 95% | 100% | 100% | – | 90% | 95% | 95% | –
